Legend:
Assay type in all cases: cell-based
[1] = test system: Wnt activity (Sp5-Luc reporter, SW480 colon carcinoma cells); assay: Screening assay for Wnt activity: Sp5-Luc reporter gene assay in SW480 colon carcinoma cells; conditions: Homo sapiens; for inhibition at 10 µM: SW480, read-out: percent inhibition at 10 μM; for EC50: Sp5-Luc reporter, SW480 cells, overnight incubation
Procedure, shortened: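 SW480 colon carcinoma cells stably carrying Sp5 promoter (eight TCF/LEF sites)-driven firefly luciferase, plated at 4,000 cells/well in 1% FBS medium and incubated overnight at 37° C. Luminescence normalised to DMSO-only cells; EC50 from four-parameter variable-slope nonlinear regression.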

[2] = test system: primary human mesenchymal stem cells (hMSCs); assay: Induction of chondrogenesis in hMSCs (chondrogenic nodules, Rhodamine B/Nile Red); conditions: 6 days; for EC50: concentration required to induce 50% levels of chondrogenesis vs TGF-β3, read-out: Conc (nM) of 50% TGF-β3 activity; for Emax: relative to TGF-β3 (10 ng/mL) positive control, read-out: Max. Activity as % TGF-β3 activity
Source text: Representative compounds were screened using primary human mesenchymal stem cells (hMSCs) to determine their ability to induce chondrogenesis (process by which cartilage is developed).
Human Mesenchymal Stem Cell Culture: Primary human mesenchymal stem cells (hMSCs) were purchased from Lonza (Walkersville, Md.) and expanded in Mesenchymal Stem Cell Growth Media (Lonza). Cells between passage 3 and 6 were used for the experiments.
Number of nodules in each well was normalized to the average of 3 DMSO treated wells on the same plate using Excel (Microsoft Inc.). The normalized averages (fold change over DMSO) of 3 replicate wells for each compound concentration were calculated. Due to solubility limitations of some of the compounds, curve fitting was incomplete leading to inaccurate EC50 determinations.
Using TGF-β3 as a positive control, the concentration of representative compounds required to induce 50% levels of chondrogenesis is reported. In addition, the maximum activity of each compound and the respective dose that each compound reached maximum chondrogenesis activity is reported.

[3] = test system: primary human fibroblasts derived from IPF patients (LL29 cells) treated with TGF-β1; assay: Inhibition of the fibrotic process: αSMA staining in TGF-β1 treated LL29 fibroblasts; conditions: Fibroblast; for EC50: 96 h, % αSMA positive LL29 cells, TGF-β1 20 ng/mL, 4 days; for inhibition at 10 µM: read-out: percent inhibition at 10 μM
Procedure, shortened: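 IPF-patient-derived LL29 lung fibroblasts in F12 with 1% FBS, stimulated with TGF-β1 alongside compound; TGF-β1 plus DMSO wells served as controls. After 4 days, nuclei stained with 1 μM SYTOX green for 30 min at room temperature, alongside αSMA staining.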

SW480 colon cancer cells = assay: Cell viability assay (CellTiter-Blue) in SW480 colon cancer cells; conditions: Homo sapiens; for EC50: 96 h, SW480 cell viability, four days; for inhibition at 10 µM: SW480, read-out: percent inhibition at 10 μM
Procedure, shortened: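 Fluorescence from resazurin reduced to resorufin by metabolically active cells was the read-out, taken after ~3 h with CellTiter-Blue.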

IL-6 (THP-1 cells) = assay: IL-6 inhibition in LPS-stimulated THP-1 monocytes (HTRF); conditions: Homo sapiens; for inhibition at 10 µM: THP-1, read-out: percent inhibition at 10 μM; for EC50: IL-6, THP-1 cells, LPS 500 ng/mL, 22 hours
Procedure, shortened: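 THP-1 cells kept 24 h in 1% FBS medium, exposed to compound 2 h at 37 °C, then stimulated with 500 ng/mL LPS for 22 h. Secreted IL-6 quantified by HTRF (665/620 nm ratio), duplicates. Values normalized to DMSO; EC50 by four-parameter variable-slope regression.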

Compound | EC50 [1] | EC50 [2] | EC50 (SW480 colon cancer cells) | EC50 (IL-6 (THP-1 cells)) | inhibition at 10 µM [1] | Emax [2] | EC50 [3] | inhibition at 10 µM [3] | inhibition at 10 µM (SW480 colon cancer cells) | inhibition at 10 µM (IL-6 (THP-1 cells))
CCCCC(=O)Nc1cncc(-c2cc3c(-c4cc5c(-c6cc(F)cc(CNS(C)(=O)=O)c6)nccc5[nH]4)n[nH]c3cn2)c1 [Compound 495, N-(5-(3-(4-(3-Fluoro-5-(methylsulfonamidomethyl)phenyl)-1H-pyrrolo[3,2-c]pyridin-2-yl)-1H-pyrazolo[3,4-c]pyridin-5-yl)pyridin-3-yl)pentanamide] | > 10000 nM | 10 nM | > 10000 nM | > 10000 nM | 29.6% | 111% | > 10000 nM | 3.3% | 0% | 34.8%
O=C(Nc1cncc(-c2cc3c(-c4cc5c(N6CCCCC6)nccc5[nH]4)n[nH]c3cn2)c1)C1CCC1 [Compound 189, N-(5-(3-(4-(Piperidin-1-yl)-1H-pyrrolo[3,2-c]pyridin-2-yl)-1H-pyrazolo[3,4-c]pyridin-5-yl)pyridin-3-yl)cyclobutanecarboxamide] | 4070 nM |  | 4890 nM | 3430 nM |  | 42% | 1220 nM |  |  | 
CN(C)Cc1cncc(-c2cc3c(-c4cc5c(N6CCN(C)CC6)nccc5[nH]4)n[nH]c3cn2)c1 [Compound 237, N,N-Dimethyl-1-(5-(3-(4-(4-methylpiperazin-1-yl)-1H-pyrrolo[3,2-c]pyridin-2-yl)-1H-pyrazolo[3,4-c]pyridin-5-yl)pyridin-3-yl)methanamine] | 3890 nM |  | > 10000 nM | 4680 nM |  | 14% | > 10000 nM | 37% | 43.7% | 
CCNCc1cncc(-c2cc3c(-c4cc5c(N6CCCCC6)nccc5[nH]4)n[nH]c3cn2)c1 [Compound 174, N-((5-(3-(4-(Piperidin-1-yl)-1H-pyrrolo[3,2-c]pyridin-2-yl)-1H-pyrazolo[3,4-c]pyridin-5-yl)pyridin-3-yl)methyl)ethanamine] | 2770 nM | 10 nM | 2370 nM | 1020 nM |  | 183% | 1200 nM |  |  | 
c1ccc(CNCc2cncc(-c3cc4c(-c5cc6c(-c7ccncc7)nccc6[nH]5)n[nH]c4cn3)c2)cc1 [Compound 136, N-Benzyl-1-(5-(3-(4-(pyridin-4-yl)-1H-pyrrolo[3,2-c]pyridin-2-yl)-1H-pyrazolo[3,4-c]pyridin-5-yl)pyridin-3-yl)methanamine] | > 10000 nM | 900 nM | > 10000 nM | > 10000 nM | 50.4% | 67% | 560 nM |  | 23% | 0%
CC(C)CC(=O)Nc1cncc(-c2cc3c(-c4cc5c(-c6cccs6)nccc5[nH]4)n[nH]c3cn2)c1 [Compound 338, 3-Methyl-N-(5-(3-(4-(thiophen-2-yl)-1H-pyrrolo[3,2-c]pyridin-2-yl)-1H-pyrazolo[3,4-c]pyridin-5-yl)pyridin-3-yl)butanamide] | 572 nM | 10 nM | 440 nM | 449 nM |  | 81% | 155 nM |  |  | 
CS(=O)(=O)NCc1cc(F)cc(-c2nccc3[nH]c(-c4n[nH]c5cnc(-c6cncc(CNCC7CCCC7)c6)cc45)cc23)c1 [Compound 501, N-(3-(2-(5-(5-(((Cyclopentylmethyl)amino)methyl)pyridin-3-yl)-1H-pyrazolo[3,4-c]pyridin-3-yl)-1H-pyrrolo[3,2-c]pyridin-4-yl)-5-fluorobenzyl)methanesulfonamide] | > 10000 nM | 30 nM | > 10000 nM | 3420 nM | 49.3% | 52% | > 10000 nM | 41.7% | 23% | 
Cc1ccncc1-c1cc2c(-c3cc4cnccc4[nH]3)n[nH]c2cn1 [Compound 257, 5-(4-Methylpyridin-3-yl)-3-(1H-pyrrolo[3,2-c]pyridin-2-yl)-1H-pyrazolo[3,4-c]pyridine] | 389 nM | 10 nM | 798 nM | 944 nM |  | 61% | 376 nM |  |  | 
O=C(Nc1cncc(-c2cc3c(-c4cc5cnccc5[nH]4)n[nH]c3cn2)c1)C1CCCCC1 [Compound 275, N-(5-(3-(1H-Pyrrolo[3,2-c]pyridin-2-yl)-1H-pyrazolo[3,4-c]pyridin-5-yl)pyridin-3-yl)cyclohexanecarboxamide] | 1620 nM | 30 nM | 5200 nM | 2690 nM |  | 59% | 1880 nM |  |  | 

Further lines, with some results ahead:

EC50 [1] | EC50 [2] | EC50 (SW480 colon cancer cells) | EC50 (IL-6 (THP-1 cells)) | Compound | inhibition at 10 µM [1] | Emax [2] | EC50 [3] | inhibition at 10 µM [3] | inhibition at 10 µM (SW480 colon cancer cells) | inhibition at 10 µM (IL-6 (THP-1 cells))
1850 nM | 30 nM | 1730 nM | 425 nM | CN(C)Cc1cncc(-c2cc3c(-c4cc5c(-c6cccc(F)c6)nccc5[nH]4)n[nH]c3cn2)c1 [Compound 13, 1-(5-(3-(4-(3-Fluorophenyl)-1H-pyrrolo[3,2-c]pyridin-2-yl)-1H-pyrazolo[3,4-c]pyridin-5-yl)pyridin-3-yl)-N,N-dimethylmethanamine] |  | 60% | 9 nM |  |  | 
595 nM |  | 716 nM | 489 nM | Cc1ccncc1-c1cc2c(-c3cc4c(-c5ccc(F)cc5)nccc4[nH]3)n[nH]c2cn1 [Compound 33, 3-(4-(4-Fluorophenyl)-1H-pyrrolo[3,2-c]pyridin-2-yl)-5-(4-methylpyridin-3-yl)-1H-pyrazolo[3,4-c]pyridine] |  | 24% | 266 nM |  |  | 
3200 nM | 900 nM | 3590 nM | 3500 nM | CN(C)CCOc1cncc(-c2cc3c(-c4cc5c(-c6ccc(F)cc6)nccc5[nH]4)n[nH]c3cn2)c1 [Compound 531, 2-((5-(3-(4-(4-Fluorophenyl)-1H-pyrrolo[3,2-c]pyridin-2-yl)-1H-pyrazolo[3,4-c]pyridin-5-yl)pyridin-3-yl)oxy)-N,N-dimethylethan-1-amine] |  | 113% | 920 nM |  |  | 
2140 nM |  | 1600 nM | > 10000 nM | Fc1ccccc1-c1nccc2[nH]c(-c3n[nH]c4cnc(-c5cncnc5)cc34)cc12 [Compound 83, 3-(4-(2-Fluorophenyl)-1H-pyrrolo[3,2-c]pyridin-2-yl)-5-(pyrimidin-5-yl)-1H-pyrazolo[3,4-c]pyridine] |  | 47% | 1040 nM |  |  | 27.3%
224 nM | 10 nM | 940 nM | 119 nM | Nc1cncc(-c2cc3c(-c4cc5c(-c6ccccc6F)nccc5[nH]4)n[nH]c3cn2)c1 [Compound 59, 5-(3-(4-(2-Fluorophenyl)-1H-pyrrolo[3,2-c]pyridin-2-yl)-1H-pyrazolo[3,4-c]pyridin-5-yl)pyridin-3-amine] |  | 117% | 5400 nM |  |  | 
289 nM | 900 nM | 298 nM | 669 nM | CC(C)CC(=O)Nc1cncc(-c2cc3c(-c4cc5c(-c6ccc(F)cc6)nccc5[nH]4)n[nH]c3cn2)c1 [Compound 30, N-(5-(3-(4-(4-Fluorophenyl)-1H-pyrrolo[3,2-c]pyridin-2-yl)-1H-pyrazolo[3,4-c]pyridin-5-yl)pyridin-3-yl)-3-methylbutanamide] |  | 71% | 356 nM |  |  | 
844 nM | 30 nM | 666 nM | 1050 nM | O=C(Nc1cncc(-c2cc3c(-c4cc5c(-c6ccc(F)cc6)nccc5[nH]4)n[nH]c3cn2)c1)C1CC1 [Compound 48, N-(5-(3-(4-(4-Fluorophenyl)-1H-pyrrolo[3,2-c]pyridin-2-yl)-1H-pyrazolo[3,4-c]pyridin-5-yl)pyridin-3-yl)cyclopropanecarboxamide] |  | 96% | 404 nM |  |  | 

Reference: patent US10206908B2, “3-(1H-pyrrolo[3,2-C]pyridin-2-YL)-1H-pyrazolo[3,4-C]pyridines and therapeutic uses thereof” (Samumed, LLC, priority 2015, dated 2019)
